{"source": "patent US8236779B2", "about": "“Antiviral nucleosides” (Roche Palo Alto LLC, priority 2010, dated 2012)", "key": {"[1]": {"test_system": "HCV", "conditions": "cited from earlier work"}, "[2]": {"molecular_target": "T1, HCV polymerase (NS5B570n-Con1) (Hepatitis C virus genotype 1b, UniProt Q9WMX2)", "T1 construct": "a 21 amino acid C-terminal deletion of full-length HCV polymerase derived from HCV Con1 strain; made in house; host or cells: E. coli BL21(DE3) pLysS, plasmid pET17b", "assay": "HCV NS5B RNA polymerase activity", "format": "biochemical, HCV Con1 strain", "experimental": "The enzymatic activity of HCV polymerase (NS5B570n-Con1) was measured as the incorporation of radiolabeled nucleotide monophosphates into acid insoluble RNA products. Unincorporated radiolabeled substrate was removed by filtration and scintillant was added to the washed and dried filter plate containing radiolabeled RNA product. The amount of RNA product generated by NS5B570n-Con1 at the end of the reaction was directly proportional to the amount of light emitted by the scintillant.\nThe HCV polymerase used in the enzymatic activity assay is a 21 amino acid C-terminal deletion of full-length HCV polymerase derived from HCV Con1 strain, genotype 1b (GenBank accession number AJ242654) (NS5B570n-Con1). The NS5B570n-Cont was sub-cloned downstream to the T7 promoter of the plasmid expression construct pET17b and transformed into E. coli strain BL21(DE3) pLysS for protein expression. A single colony was used to start an innoculum for a 10 L culture in LB media supplemented with 100 μg/mL ampicillin at 37° C. […]\nThe amount of light emitted from the scintillant was converted to counts per minute (CPM) on a Topcount® plate reader (Perkin-Elmer, Energy Range: Low, Efficiency Mode: Normal, Count Time: 1 min, Background Subtract: none, Cross talk reduction: Off).\nData was analyzed in Excel® (Microsoft®) and ActivityBase® (Idbs®). […] All data was expressed as a percentage of the positive control. […]"}, "[3]": {"test_system": "HCV", "conditions": "monotherapy; cited from earlier work"}, "[4]": {"test_system": "primary human hepatocytes", "assay": "Uptake and phosphorylation in primary human hepatocytes", "format": "in vitro ADME", "experimental": "The analysis of uptake and phosphorylation of the nucleoside analog 4AU in primary human hepatocytes was performed as previously published (Ma, H. et al. J. Biol. Chem. 2007, 282:29812-29820). Fresh human hepatocytes were plated and incubated with ^3H-labeled 4AU for different time spans. At the time of cell harvest the cell culture medium was aspirated, and the cells were washed once with cold phosphate-buffered saline. The cells were scraped into 1 mL of pre-chilled 60% (v/v) methanol containing 10 mM EDTA and extracted in methanol for 24 h at −20° C. The extracted samples were then centrifuged at 10,000×g for 15 min to remove cell debris. The supernatant was transferred to new tubes and evaporated in a speed vacuum at room temperature. The dried pellets of cell extracts were dissolved in H2O. Before HPLC analysis, cell extract samples were spiked with unlabeled reference standards 4AU and 4AU-mono-, di- and triphosphate derivatives.\nThe phosphorylation derivatives of 4AU were separated by ion exchange HPLC with a Whatman Partisil 10 SAX (4.6×250 mm) column coupled to a radiometric detector (β-RAM, IN/US Systems, Inc.). The mobile phase gradient changed linearly from 99% buffer A (H2O) and 1% buffer B (0.5 M KH2PO4+0.8 M KCl) to 100% buffer B between 4 and 16 minutes. 100% buffer B ran from 16 minutes to 26 minutes and changed back to 100% A in 1 minute. Buffer A ran until 32 minutes. […]"}, "[5]": {"test_system": "human hepatoma Huh7 cells", "assay": "Phosphorylation in Huh7 replicon cells", "format": "in vitro ADME", "description": "(FIG. 2) Since the cell specific phosphorylation takes place in the target tissue for HCV replication, there is the potential that 4′-AU will be selectively phosphorylated in the target tissue vis-à-vis other tissues thereby minimizing off target toxicity."}, "[6]": {"test_system": "HCV replicon (human hepatoma Huh7 cells)", "conditions": "cited from earlier work"}}, "data": [{"smiles": "[N-]=[N+]=N[C@]1(CO)O[C@@H](n2ccc(N)nc2=O)[C@H](O)[C@@H]1O", "note": "[4′-AC, 4′-azido-cytidine]", "values": [{"measurement": "inhibition of viral replication", "setting": "[1]", "value": "potent inhibitor of viral replication"}]}, {"smiles": "[N-]=[N+]=N[C@]1(COP(=O)(O)OP(=O)(O)OP(=O)(O)O)O[C@@H](n2ccc(N)nc2=O)[C@H](O)[C@@H]1O", "note": "[4′-AC-triphosphate, 4′-azido-cytidine triphosphate]", "values": [{"measurement": "IC50", "setting": "[2]", "value": "29 ± 0.13", "unit": "µM"}]}, {"smiles": "[N-]=[N+]=N[C@]1(COP(=O)(O)OP(=O)(O)OP(=O)(O)O)O[C@@H](n2ccc(=O)[nH]c2=O)[C@H](O)[C@@H]1O", "note": "[4′-AU triphosphate, 4-azidouridine triphosphate]", "values": [{"measurement": "IC50", "setting": "[2]", "value": "0.46 ± 0.088", "unit": "µM"}]}, {"smiles": "CC(=O)OC(O)[C@@]1(N=[N+]=[N-])O[C@@H](n2ccc(=O)[nH]c2=O)[C@@](O)(OC(C)=O)[C@@]1(O)OC(C)=O", "note": "(some centres unmarked)", "values": [{"measurement": "melting point", "value": 158, "unit": "°C"}]}, {"smiles": "CCC(=O)O[C@H]1[C@H](n2ccc(=O)[nH]c2=O)O[C@@](CO)(N=[N+]=[N-])[C@H]1OC(=O)CC", "note": "[I-1, Propionic acid (2R,3R,4S,5R)-5-azido-2-(2,4-dioxo-3,4-dihydro-2H-pyrimidin-1-yl)-5-hydroxymethyl-4-propionyloxy-tetrahydro-furan-3-yl ester]", "values": [{"measurement": "melting point", "value": "118 to 120", "unit": "°C"}]}, {"smiles": "NC(=O)c1ncn([C@@H]2O[C@H](CO)[C@@H](O)[C@H]2O)n1", "note": "[ribavirin, 1-((2R,3R,4S,5R)-3,4-Dihydroxy-5-hydroxymethyl-tetrahydro-furan-2-yl)-1H-[1,2,4]triazole-3-carboxylic acid amide]", "values": [{"measurement": "effect on serum levels of HCV-RNA", "setting": "[3]", "value": "does not lower serum levels of HCV-RNA"}, {"measurement": "patients with serum amino transferase levels reduced to normal", "setting": "[3]", "value": 40, "unit": "%"}]}, {"smiles": "[N-]=[N+]=N[C@]1(CO)O[C@@H](n2ccc(=O)[nH]c2=O)[C@H](O)[C@@H]1O", "note": "[4′-AU, 4′-azido-uridine]", "values": [{"measurement": "efficiency of phosphorylation relative to 4′-AC", "setting": "[4]; 4′-AU vs 4′-AC, human hepatocytes", "value": "approximately 10 fold"}, {"measurement": "phosphorylation in primary human hepatocytes", "setting": "[4]; primary human hepatocytes", "value": "phosphorylation does occur efficiently"}, {"measurement": "phosphorylation in Huh7 cells used in the replicon assay", "setting": "[5]", "value": "lack of phosphorylation"}, {"measurement": "activity in the replicon assay", "setting": "[6]", "value": "inactive"}]}]}
